What all share (settings): bmdc
Data set [1] in a line: Antiinflammatory activity in wild-type C57BL/6 mouse BMDCs assessed as inhibition of TNFalpha production incubated for 1 hr prior to LPS challenge measured after 16 hrs by ELISA. The class given is functional. In general terms: In an ELISA, binding on a coated surface is turned into a signal by an enzyme label.
Data set [2] is described as follows: Antiinflammatory activity in wild-type C57BL/6 mouse BMDCs assessed as inhibition of IL-6 production incubated for 1 hr prior to LPS challenge measured after 16 hrs by ELISA. The data set is classed as functional.
A short description of data set [3]: Antiinflammatory activity in wild-type C57BL/6 mouse BMDCs assessed as inhibition of IL-12 p40 production incubated for 1 hr prior to LPS challenge measured after 16 hrs by ELISA. The class given is functional.
Data set [4] in a line: Cytotoxicity against wild-type C57BL/6 mouse BMDCs assessed as cell viability by MTT assay. (In general: Tetrazolium assays rely on reduction of a dye to a coloured formazan, in cell work by metabolically active cells.)

As for `CC(=O)c1[nH]ccc1O[C@@H]1O[C@H](C)[C@@H](O[C@@H]2O[C@H](C)[C@H](O)[C@H](O[C@@H]3O[C@H](C)[C@H](O)[C@H](O)[C@H]3O)[C@H]2O)[C@H](O)[C@H]1O[C@@H]1O[C@H](C)[C@@H](O)[C@H](O)[C@H]1O`, the IC50 in data set [1], in data set [2] and in data set [3] was > 50 µM throughout. In data set [4], the Activity result was “Non-toxic”.
For the molecule `CC(=O)c1[nH]ccc1O[C@@H]1O[C@H](C)[C@@H](O[C@@H]2O[C@H](C)[C@H](O)[C@H](O[C@@H]3O[C@H](C)[C@H](O)[C@H](O[C@@H]4O[C@@H](CO)[C@H](O)[C@H]4O)[C@H]3O)[C@H]2O)[C@H](O)[C@H]1O[C@@H]1O[C@H](C)[C@@H](O)[C@H](O)[C@H]1O` [ASTEBATHERIOSIDE A], the half-maximal inhibitory concentration (IC50) in data set [1], in data set [2] and in data set [3] was > 50 µM each time. Also, the Activity result in data set [4] is on record as “Non-toxic”.
For `CC(=O)c1[nH]ccc1O[C@@H]1O[C@H](C)[C@@H](O[C@H]2OC[C@H](O)[C@H](O)[C@H]2O[C@@H]2O[C@H](C)[C@H](O)[C@H](O[C@@H]3O[C@@H](CO)[C@H](O)[C@H]3O)[C@H]2O)[C@H](O)[C@H]1O[C@@H]1O[C@H](C)[C@@H](O)[C@H](O)[C@H]1O` [ASTEBATHERIOSIDE B], in data set [3], the IC50 stood at 36.4 µM. Moreover, in data set [4], the Activity entry is reported as “Non-toxic”.
As for `CC(=O)c1[nH]ccc1O[C@@H]1O[C@H](C)[C@@H](O)[C@H](O)[C@H]1O[C@@H]1O[C@H](C)[C@@H](O)[C@H](O)[C@H]1O` [ASTEBATHERIOSIDE C], in data set [3], the IC50 was 31.6 µM. Besides, the Activity result in data set [4] is on record as “Non-toxic”.
For the molecule `CC(=O)c1occc1O[C@@H]1O[C@H](C)[C@@H](O[C@@H]2O[C@H](C)[C@H](O)[C@H](O[C@@H]3O[C@H](C)[C@H](O)[C@H](O)[C@H]3O)[C@H]2O)[C@H](O)[C@H]1O[C@@H]1O[C@H](C)[C@@H](O)[C@H](O)[C@H]1O` [ASTEBATHERIOSIDE D], in data set [3], the IC50 worked out at 22.8 µM. For the same molecule, in data set [4], the Activity entry is “Non-toxic”.
For the molecule `C[S+]([O-])c1ccc(-c2nc(-c3ccc(F)cc3)c(-c3ccncc3)[nH]2)cc1` (stereo not given) [SB-203580], the IC50 in data set [3] was 5 µM.

One may read the IC50 as the point on the concentration scale where inhibition reaches its midpoint.

(Values after ChEMBL document CHEMBL2331172, “Pyrrole and furan oligoglycosides from the starfish Asterina batheri and their inhibitory effect on the production of pro-inflammatory cytokines in lipopolysaccharide-stimulated bone marrow-derived dendritic cells” (Bioorg Med Chem Lett, 2013).)
